{"source": "patent US20190374509A1", "about": "“Methods of Using Metamizole for Treatment of Pyrexia in Equines” (Kindred Biosciences, Inc., priority 2018, published 2019)", "key": {"horses [1]": {"test_system": "horses", "assay": "Margin of safety study: lung bacterial culture at necropsy"}, "horses [2]": {"test_system": "horses", "format": "in vivo", "conditions": "8 horses per group", "protocol": "(§1) A study was conducted to evaluate the margin of safety of metamizole when administered intravenously to horses for 9 days at doses of 0 mg/kg (0×), 30 mg/kg (1×), 60 mg/kg (2×), and 90 mg/kg (3×) of body weight three times daily (TID), every 8 hours±30 min.\n(§2) Treatment phase involved administration of the investigational drug or placebo. The investigational drug was a sterile injectable formulation of dipyrone (Zimeta™, Corden Pharma, Caponago, Italy) (500 mg/mL) in 100 mL glass bottles. The placebo was sterile injectable saline (Nova-Tech Inc, Grand Island, NE) (0.9% sodium chloride) in 500 mL plastic bottles labeled for veterinary use. Dipyrone treatment groups were 30 mg/kg (1×), 60 mg/kg (2×), and 90 mg/kg (3×). Placebo treatment group was saline administered at a volume to match the 3× dipyrone group (0×). The dose was calculated based on body weight and administered three times daily for nine consecutive days. Due to the large volume of injection at the higher dose groups, treatment was administered via indwelling intravenous (IV) catheters. Intravenous catheters were placed using standard techniques. Horses were sedated with xylazine (AnaSed® LA, VetOne, MWI, Boise, Id.) and the skin was desensitized with subcutaneous injection of lidocaine (VetOne, MWI, Boise, Id.). Intravenous catheters were replaced at the discretion of the study director and were maintained with heparinized saline flush prior to and following dose administration.\n(§3) Randomization occurred on Study Day −1. […] .\nAll 32 horses were acclimated prior to study initiation and started the treatment phase healthy. During the study, numerous horses in all groups including placebo developed clinical signs of pneumonia likely due to exposure and incubation of respiratory pathogens prior to the start of the treatment phase. The mean time to development of pneumonia was 6.9 days with a range of 4.3 to 8.3 days. […] The other 31 horses completed the study. At the second gastroscopy examination, completed just prior to the treatment phase, one horse was noted to have purulent material draining from the guttural pouch. […]"}, "horses [3]": {"test_system": "horses", "assay": "Margin of safety study, IV three times daily for 9 days: necropsy, organ weights, histopathology", "format": "in vivo", "conditions": "for Liver (absolute weight) LS Means / Liver (relative to body weight) LS Means: necropsy", "protocol": "as §1, §2, §3\nFor continuous endpoints with single post-treatment measures (organ weight and organ weight relative to body weight), analysis of variance (ANOVA) was used to evaluate a model including treatment, sex, and treatment by sex interaction as fixed effects. If treatment by sex interaction was significant, within sex pair-wise comparison of each treatment group versus placebo using linear contrasts were performed. If treatment by sex interaction was not significant and treatment effect was significant, pair-wise comparison of each treatment group versus placebo for pooled sex were performed. In particular, sex specific organ weights (ovaries) were analyzed by ANOVA including only treatment as a fixed effect."}, "horses [4]": {"test_system": "horses", "assay": "Pyrexia efficacy Study 1 (unmasked, single IV dose, rectal temperature)", "format": "in vivo", "conditions": "30 mg/kg IV single dose; for Mean (± SD) temperature change from baseline: horses with rectal temperature ≥102.0° F.", "protocol": "Study 1: The unmasked laboratory study was conducted at a clinical research organization in the United States. Institutional Animal Care and Use Committee (IACUC) approval was obtained prior to the conduct of the study. Horses one year of age or older were comingled by the Investigator in order to facilitate transmission of respiratory infections. Horses were monitored by the study staff for elevation of rectal temperature. All horses received treatment once the rectal temperature was ≥102.0° F. A single dose of dipyrone was administered intravenously (30 mg/kg IV). Rectal temperature was monitored 1, 2, 3, and 6 hours post-treatment administration.\nIn both studies horses were assessed daily to determine overall safety. Medications that could have impacted the temperature or the underlying cause of the disease were not permitted in either study; however, horses in both studies were eligible for rescue at the discretion of the Investigator. Following completion of the study, the Investigator treated the horses with standard of care for the type, and severity, of clinical signs. Statistical analysis was performed with the Wilcoxon rank sum test (SAS®, SAS Institute, Cary N.C., version 9.4)."}}, "note": "Read-outs that look alike come from different tables or passages of the source."}
{"smiles": "Cc1c(N(C)CS(=O)(=O)O)c(=O)n(-c2ccccc2)n1C", "note": "[dipyrone, [(2,3-dihydro-1,5-dimethyl-3-oxo-2-phenyl-1H-pyrazol-4-yl)methylamino] methanesulfonic acid]", "values": [{"measurement": "S. aureus cultured at necropsy, number positive horses", "setting": "horses [1]; 1X, 30 mg/kg IV every 8 hours", "value": 1}, {"measurement": "Acinetobacter sp. cultured at necropsy, number positive horses", "setting": "horses [1]; 2X, 60 mg/kg IV every 8 hours", "value": "2X (n = 1)"}, {"measurement": "Aeromonas sp. cultured at necropsy, number positive horses", "setting": "horses [1]; 2X, 60 mg/kg IV every 8 hours", "value": "2X (n = 1)"}, {"measurement": "Pantoea sp. cultured at necropsy, number positive horses", "setting": "horses [1]; 2X, 60 mg/kg IV every 8 hours", "value": "2X (n = 1)"}, {"measurement": "Pseudomonas sp. cultured at necropsy, number positive horses", "setting": "horses [1]; 2X, 60 mg/kg IV every 8 hours", "value": "2X (n = 1)"}, {"measurement": "S. aureus cultured at necropsy, number positive horses", "setting": "horses [1]; 2X, 60 mg/kg IV every 8 hours", "value": 2}, {"measurement": "S. dysgalactiae subsp. equisimilis cultured at necropsy, number positive horses", "setting": "horses [1]; 2X, 60 mg/kg IV every 8 hours", "value": "2X (n = 1)"}, {"measurement": "S. equi subsp. zooepidemicus cultured at necropsy, number positive horses", "setting": "horses [1]; 2X, 60 mg/kg IV every 8 hours", "value": "0X (n = 2), 2X (n = 1), 3X (n = 1)"}, {"measurement": "S. aureus cultured at necropsy, number positive horses", "setting": "horses [1]; 3X, 90 mg/kg IV every 8 hours", "value": 2}, {"measurement": "S. equi subsp. zooepidemicus cultured at necropsy, number positive horses", "setting": "horses [1]; 3X, 90 mg/kg IV every 8 hours", "value": "0X (n = 2), 2X (n = 1), 3X (n = 1)"}, {"measurement": "Nasal Discharge, number of horses", "setting": "horses [2]; 1X, 30 mg/kg IV every 8 hours", "value": 1}, {"measurement": "Nasal Discharge, number of horses", "setting": "horses [2]; 2X, 60 mg/kg IV every 8 hours", "value": 2}, {"measurement": "Nasal Discharge, number of horses", "setting": "horses [2]; 3X, 90 mg/kg IV every 8 hours", "value": 1}, {"measurement": "Liver (absolute weight) LS Means", "setting": "horses [3]; 1X, 30 mg/kg IV every 8 hours", "value": 6280.00, "unit": "g"}, {"measurement": "Liver (relative to body weight) LS Means", "setting": "horses [3]; 1X, 30 mg/kg IV every 8 hours", "value": 13.69}, {"measurement": "Liver (absolute weight) LS Means", "setting": "horses [3]; 2X, 60 mg/kg IV every 8 hours", "value": 6892.50, "unit": "g"}, {"measurement": "Liver (relative to body weight) LS Means", "setting": "horses [3]; 2X, 60 mg/kg IV every 8 hours", "value": 15.28}, {"measurement": "Liver (absolute weight) LS Means", "setting": "horses [3]; 3X, 90 mg/kg IV every 8 hours", "value": 7765.21, "unit": "g"}, {"measurement": "Liver (relative to body weight) LS Means", "setting": "horses [3]; 3X, 90 mg/kg IV every 8 hours", "value": 16.38}, {"measurement": "Effect on absolute and relative liver weights", "setting": "horses [3]; 30, 60, 90 mg/kg IV every 8 hours for 9 days vs placebo", "value": "statistically significant increase in absolute and relative liver weights"}, {"measurement": "Renal, hepatic and gastrointestinal gross necropsy and histopathology evaluation", "setting": "horses [3]; up to 90 mg/kg IV every 8 hours for 9 days", "value": "no significant findings"}, {"measurement": "Mean (± SD) temperature change from baseline", "setting": "horses [4]; Hour 1", "value": "−1.1 (± 0.5) ° F."}, {"measurement": "Mean (± SD) temperature change from baseline", "setting": "horses [4]; Hour 2", "value": "−1.4 (± 1.0) ° F."}, {"measurement": "Mean (± SD) temperature change from baseline", "setting": "horses [4]; Hour 3", "value": "−1.9 (± 1.0) ° F."}, {"measurement": "Mean (± SD) temperature change from baseline", "setting": "horses [4]; Hour 6", "value": "−1.9 (± 1.1) ° F."}, {"measurement": "Fever reduction post-dose", "setting": "horses [4]; Hours 1, 2, 3, 6", "value": "significantly reduced fever at all measured timepoints post-dose"}, {"measurement": "Horses with reduced fever (>1° F.)", "setting": "horses [4]; eight horses, Hour 6", "value": 87.5, "unit": "%"}, {"measurement": "Horses with return to normothermia (≥2° F.)", "setting": "horses [4]; eight horses, Hour 6", "value": 75, "unit": "%"}]}
